Results on 1 compound are retold here after US9619875B2, “Contrast reagent leakage correction in dynamic susceptibility contrast magnetic resonance imaging” (OREGON HEALTH & SCIENCE UNIVERSITY, priority 2014, dated 2017).

A short description of the data set: DSC MRI with gadoteridol (day 1) and ferumoxytol (day 2) in subjects with Glioblastoma multiforme. It counts as in vivo. From the text: In this example, 17 subjects with Glioblastoma multiforme (GBM) were prospectively studied on institutional review board approved protocols. Informed written consent was obtained from each subject. Subjects underwent MRI sessions consisting of two consecutive days of MRI scans. On the first day, pre- and post-contrast T1-weighted images and DSC-MRI were acquired using gadoteridol gadolinium (III) chelate (ProHance, Bracco Diagnostic Inc., Princeton, N.J.). On the following day, the same MRI sequences were acquired using ferumoxytol (provided by AMAG Pharmaceuticals, Inc., Cambridge, Mass.). […]
All Gd and Fe DSC data were first motion corrected within each dynamic series and then between the series using FMRIB's Linear Image Registration Tool (FLIRT) within FM RIB Software Library (FSL). […] The Gd CR extravasating rate constant was calculated either with the Equation 1 fitting approach to obtain K2, or the KL constant defined as the slope of the linear portion of the graphed points using Equation 2. In this example, linear regression was performed starting at 40 seconds post CR injection to ensure minimal influence of CR transient period (period (i) shown in FIGS. 2E and 2F described below) on KL quantification. […]

Molecules are shown by their SMILES.

As to `CC(O)CN1CCN(CC(=O)[O-])CCN(CC(=O)[O-])CCN(CC(=O)[O-])CC1.[Gd+3]` (centres unmarked) [gadoteridol, gadoteridol gadolinium (III) chelate], the “complications during the MR examinations” value (17 GBM subjects, gadoteridol 0.1 mmol/kg i.v., ferumoxytol 1 mg/kg, 2 mg/kg or 75 mg i.v.) is “No subject had any complications”. In addition, where the note is “Equation 2 linearization, data up to 70 s post CR injection”, the “pixels with appreciable linearity departure (period iii, intravasation)” value is listed as < 0.1%.
